# Patent publication US11697648B2, “Fused pyrimidine pyridinone compounds as JAK inhibitors” (THERAVANCE BIOPHARMA R&D IP, LLC, priority 2019, dated 2023)
# Biological target: JAK3 (Homo sapiens (Human), UniProt P52333)
# Assay: Biochemical JAK3 kinase assay (LanthaScreen)
# Conditions: not given
# Summary of the method: (§1)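 GST-JAK + GFP-STAT1 peptide, HEPES pH 7.5/MgCl2/EGTA/Brij-35 buffer; cpd preincubation 1 h RT; ATP start, 1 h RT; stop with 10 mM EDTA + 2 nM Tb-anti-pSTAT1; TR-FRET 520/495. 4-parameter IC50 → pKi (Cheng-Prusoff).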
# Sequence of JAK3 (P52333 whole entry): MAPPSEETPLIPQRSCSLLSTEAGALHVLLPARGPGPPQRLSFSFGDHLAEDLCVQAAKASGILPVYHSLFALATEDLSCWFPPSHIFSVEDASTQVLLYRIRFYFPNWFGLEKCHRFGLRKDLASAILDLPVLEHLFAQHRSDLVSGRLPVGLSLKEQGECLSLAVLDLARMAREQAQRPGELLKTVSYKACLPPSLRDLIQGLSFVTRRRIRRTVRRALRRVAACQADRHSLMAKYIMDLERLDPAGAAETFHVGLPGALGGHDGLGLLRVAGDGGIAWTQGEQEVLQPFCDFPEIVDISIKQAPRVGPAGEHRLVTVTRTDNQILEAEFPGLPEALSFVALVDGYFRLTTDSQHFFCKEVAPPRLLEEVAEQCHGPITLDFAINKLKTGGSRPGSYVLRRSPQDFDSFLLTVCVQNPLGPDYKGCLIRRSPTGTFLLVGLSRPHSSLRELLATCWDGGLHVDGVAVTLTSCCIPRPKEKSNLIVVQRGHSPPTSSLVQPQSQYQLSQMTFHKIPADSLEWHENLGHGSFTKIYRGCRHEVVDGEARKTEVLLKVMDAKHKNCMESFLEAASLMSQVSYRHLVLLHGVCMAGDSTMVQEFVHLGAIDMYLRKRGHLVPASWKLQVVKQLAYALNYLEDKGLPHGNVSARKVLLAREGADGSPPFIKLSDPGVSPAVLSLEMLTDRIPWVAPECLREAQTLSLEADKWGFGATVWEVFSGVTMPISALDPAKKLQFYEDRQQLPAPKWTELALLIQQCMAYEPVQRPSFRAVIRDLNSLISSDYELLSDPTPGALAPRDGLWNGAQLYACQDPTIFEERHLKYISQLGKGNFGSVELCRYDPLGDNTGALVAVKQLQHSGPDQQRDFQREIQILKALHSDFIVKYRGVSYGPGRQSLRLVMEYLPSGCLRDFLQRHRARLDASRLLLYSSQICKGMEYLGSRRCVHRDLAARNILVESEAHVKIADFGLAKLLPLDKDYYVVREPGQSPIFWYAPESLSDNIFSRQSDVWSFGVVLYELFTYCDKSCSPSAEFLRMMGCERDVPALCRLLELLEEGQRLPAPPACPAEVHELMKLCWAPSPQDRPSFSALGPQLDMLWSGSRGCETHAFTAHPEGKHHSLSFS
row,SMILES,JAK 3 (pKi)
1,C=CC(=O)N1CC(CCn2c(=O)ccc3cnc(Nc4ccc(C5=CCN(C)CC5)cc4)nc32)C1 [Example 74],B (B represents pKi value between 9 and 10 (Ki between 1 nM and 0.1 nM))
2,C=CC(=O)N1CC(CCn2c(=O)ccc3cnc(Nc4ccc(N5CCN(S(=O)(=O)CCOC)CC5)cc4)nc32)C1 [Example 76],B (B represents pKi value between 9 and 10 (Ki between 1 nM and 0.1 nM))
3,C=CC(=O)N1CCN(CCn2c(=O)ccc3cnc(Nc4ccc(N5CCN(C(C)=O)CC5)cc4)nc32)CC1 [Example 79],B (B represents pKi value between 9 and 10 (Ki between 1 nM and 0.1 nM))
4,C=CC(=O)N1CC(CCn2c(=O)ccc3cnc(Nc4ccc(N(CC)CC)cc4)nc32)C1 [Example 88],A (A represents a pKi value≥10 (Ki≤0.1 nM))
5,C=CC(=O)N1CC(CCn2c(=O)ccc3cnc(Nc4ccc(CCN(C)C)cc4)nc32)C1 [Example 89],B (B represents pKi value between 9 and 10 (Ki between 1 nM and 0.1 nM))
6,C=CC(=O)N1CC(CCn2c(=O)ccc3cnc(Nc4ccc(N5CCN(C(=O)N(C)C)CC5)cc4)nc32)C1 [Example 92],B (B represents pKi value between 9 and 10 (Ki between 1 nM and 0.1 nM))

# Same assay, conditions: selectivity JAK3 over JAK1, difference of pKi
row,SMILES,JAK3 (pKi)-JAK1 (pKi)
1,C=CC(=O)N1CC(CCn2c(=O)ccc3cnc(Nc4ccc(C5=CCN(C)CC5)cc4)nc32)C1 [Example 74],A (A represents a value of 3 or above)
2,C=CC(=O)N1CC(CCn2c(=O)ccc3cnc(Nc4ccc(N5CCN(S(=O)(=O)CCOC)CC5)cc4)nc32)C1 [Example 76],A (A represents a value of 3 or above)
3,C=CC(=O)N1CCN(CCn2c(=O)ccc3cnc(Nc4ccc(N5CCN(C(C)=O)CC5)cc4)nc32)CC1 [Example 79],A (A represents a value of 3 or above)
4,C=CC(=O)N1CC(CCn2c(=O)ccc3cnc(Nc4ccc(N(CC)CC)cc4)nc32)C1 [Example 88],A (A represents a value of 3 or above)
5,C=CC(=O)N1CC(CCn2c(=O)ccc3cnc(Nc4ccc(CCN(C)C)cc4)nc32)C1 [Example 89],A (A represents a value of 3 or above)
6,C=CC(=O)N1CC(CCn2c(=O)ccc3cnc(Nc4ccc(N5CCN(C(=O)N(C)C)CC5)cc4)nc32)C1 [Example 92],A (A represents a value of 3 or above)

# Tested on: Caco-2 cell monolayers
# Assay: Caco-2 permeation assay
# Type: in vitro ADME
# Conditions: 5 μM, A-B direction, with Verapamil (25 μM)
# Summary of the method: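 Passive A-to-B permeability with P-gp inhibited by verapamil (25 μM); compound at 5 μM, n=2. Both compartments sampled at t0 and t120 and quantified by LC-MS/MS, giving apparent permeability in cm/sec from flux, area and concentration.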
row,SMILES,Caco Kp
1,C=CC(=O)N1CC(CCn2c(=O)ccc3cnc(Nc4ccc(C5=CCN(C)CC5)cc4)nc32)C1 [Example 74],A (A represents a value below 5×10^−6 cm/sec)
2,C=CC(=O)N1CC(CCn2c(=O)ccc3cnc(Nc4ccc(N5CCN(S(=O)(=O)CCOC)CC5)cc4)nc32)C1 [Example 76],B (B represents a value between 5×10^−6 and 10×10^−6 cm/sec)
3,C=CC(=O)N1CCN(CCn2c(=O)ccc3cnc(Nc4ccc(N5CCN(C(C)=O)CC5)cc4)nc32)CC1 [Example 79],A (A represents a value below 5×10^−6 cm/sec)
4,C=CC(=O)N1CC(CCn2c(=O)ccc3cnc(Nc4ccc(N(CC)CC)cc4)nc32)C1 [Example 88],D (D represents a value over 30×10^−6 cm/sec)
5,C=CC(=O)N1CC(CCn2c(=O)ccc3cnc(Nc4ccc(CCN(C)C)cc4)nc32)C1 [Example 89],A (A represents a value below 5×10^−6 cm/sec)
6,C=CC(=O)N1CC(CCn2c(=O)ccc3cnc(Nc4ccc(N5CCN(C(=O)N(C)C)CC5)cc4)nc32)C1 [Example 92],A (A represents a value below 5×10^−6 cm/sec)

# Biological target: JAK2 (Homo sapiens (Human), UniProt O60674)
# Assay: Biochemical JAK2 kinase assay (LanthaScreen)
# Conditions: not given
# Summary of the method: as §1
# Sequence of JAK2 (O60674 whole entry): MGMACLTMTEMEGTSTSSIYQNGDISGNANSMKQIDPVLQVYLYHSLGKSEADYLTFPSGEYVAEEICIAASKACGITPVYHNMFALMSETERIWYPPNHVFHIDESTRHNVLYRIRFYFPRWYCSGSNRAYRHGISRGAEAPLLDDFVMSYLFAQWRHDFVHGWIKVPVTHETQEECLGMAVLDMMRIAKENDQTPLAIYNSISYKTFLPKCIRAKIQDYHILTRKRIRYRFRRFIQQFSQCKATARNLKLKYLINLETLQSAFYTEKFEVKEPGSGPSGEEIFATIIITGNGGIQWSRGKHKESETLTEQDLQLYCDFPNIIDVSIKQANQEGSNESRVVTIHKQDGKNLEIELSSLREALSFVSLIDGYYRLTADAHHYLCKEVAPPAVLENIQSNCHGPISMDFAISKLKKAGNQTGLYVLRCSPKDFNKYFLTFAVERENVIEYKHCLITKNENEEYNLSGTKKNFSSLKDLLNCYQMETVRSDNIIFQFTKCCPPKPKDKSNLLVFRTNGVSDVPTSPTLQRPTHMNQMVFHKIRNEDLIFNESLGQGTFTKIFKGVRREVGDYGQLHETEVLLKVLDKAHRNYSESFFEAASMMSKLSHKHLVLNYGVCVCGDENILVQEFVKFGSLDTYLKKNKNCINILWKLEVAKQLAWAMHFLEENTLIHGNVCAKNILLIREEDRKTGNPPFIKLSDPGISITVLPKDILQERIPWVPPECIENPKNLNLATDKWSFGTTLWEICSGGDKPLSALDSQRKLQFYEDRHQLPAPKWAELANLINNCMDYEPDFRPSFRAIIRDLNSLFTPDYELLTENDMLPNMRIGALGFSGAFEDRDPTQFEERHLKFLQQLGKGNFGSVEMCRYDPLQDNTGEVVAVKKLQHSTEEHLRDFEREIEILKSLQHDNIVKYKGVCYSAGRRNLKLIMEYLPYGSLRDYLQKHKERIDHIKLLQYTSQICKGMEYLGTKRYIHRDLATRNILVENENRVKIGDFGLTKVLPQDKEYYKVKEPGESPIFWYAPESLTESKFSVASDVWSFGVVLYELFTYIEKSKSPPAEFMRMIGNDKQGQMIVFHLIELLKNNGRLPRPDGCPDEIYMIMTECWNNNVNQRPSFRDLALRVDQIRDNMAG
row,SMILES,JAK 2 (pKi)
1,C=CC(=O)N1CC(CCn2c(=O)ccc3cnc(Nc4ccc(C5=CCN(C)CC5)cc4)nc32)C1 [Example 74],E (E represents a pKi value of 7 or below (Ki of 100 nM or above))
2,C=CC(=O)N1CC(CCn2c(=O)ccc3cnc(Nc4ccc(N5CCN(S(=O)(=O)CCOC)CC5)cc4)nc32)C1 [Example 76],E (E represents a pKi value of 7 or below (Ki of 100 nM or above))
3,C=CC(=O)N1CCN(CCn2c(=O)ccc3cnc(Nc4ccc(N5CCN(C(C)=O)CC5)cc4)nc32)CC1 [Example 79],E (E represents a pKi value of 7 or below (Ki of 100 nM or above))
4,C=CC(=O)N1CC(CCn2c(=O)ccc3cnc(Nc4ccc(N(CC)CC)cc4)nc32)C1 [Example 88],E (E represents a pKi value of 7 or below (Ki of 100 nM or above))
5,C=CC(=O)N1CC(CCn2c(=O)ccc3cnc(Nc4ccc(CCN(C)C)cc4)nc32)C1 [Example 89],E (E represents a pKi value of 7 or below (Ki of 100 nM or above))
6,C=CC(=O)N1CC(CCn2c(=O)ccc3cnc(Nc4ccc(N5CCN(C(=O)N(C)C)CC5)cc4)nc32)C1 [Example 92],E (E represents a pKi value of 7 or below (Ki of 100 nM or above))

# Biological target: JAK1 (Homo sapiens (Human), UniProt P23458)
# Assay: Biochemical JAK1 kinase assay (LanthaScreen)
# Conditions: not given
# Summary of the method: as §1
# Sequence of JAK1 (P23458 whole entry): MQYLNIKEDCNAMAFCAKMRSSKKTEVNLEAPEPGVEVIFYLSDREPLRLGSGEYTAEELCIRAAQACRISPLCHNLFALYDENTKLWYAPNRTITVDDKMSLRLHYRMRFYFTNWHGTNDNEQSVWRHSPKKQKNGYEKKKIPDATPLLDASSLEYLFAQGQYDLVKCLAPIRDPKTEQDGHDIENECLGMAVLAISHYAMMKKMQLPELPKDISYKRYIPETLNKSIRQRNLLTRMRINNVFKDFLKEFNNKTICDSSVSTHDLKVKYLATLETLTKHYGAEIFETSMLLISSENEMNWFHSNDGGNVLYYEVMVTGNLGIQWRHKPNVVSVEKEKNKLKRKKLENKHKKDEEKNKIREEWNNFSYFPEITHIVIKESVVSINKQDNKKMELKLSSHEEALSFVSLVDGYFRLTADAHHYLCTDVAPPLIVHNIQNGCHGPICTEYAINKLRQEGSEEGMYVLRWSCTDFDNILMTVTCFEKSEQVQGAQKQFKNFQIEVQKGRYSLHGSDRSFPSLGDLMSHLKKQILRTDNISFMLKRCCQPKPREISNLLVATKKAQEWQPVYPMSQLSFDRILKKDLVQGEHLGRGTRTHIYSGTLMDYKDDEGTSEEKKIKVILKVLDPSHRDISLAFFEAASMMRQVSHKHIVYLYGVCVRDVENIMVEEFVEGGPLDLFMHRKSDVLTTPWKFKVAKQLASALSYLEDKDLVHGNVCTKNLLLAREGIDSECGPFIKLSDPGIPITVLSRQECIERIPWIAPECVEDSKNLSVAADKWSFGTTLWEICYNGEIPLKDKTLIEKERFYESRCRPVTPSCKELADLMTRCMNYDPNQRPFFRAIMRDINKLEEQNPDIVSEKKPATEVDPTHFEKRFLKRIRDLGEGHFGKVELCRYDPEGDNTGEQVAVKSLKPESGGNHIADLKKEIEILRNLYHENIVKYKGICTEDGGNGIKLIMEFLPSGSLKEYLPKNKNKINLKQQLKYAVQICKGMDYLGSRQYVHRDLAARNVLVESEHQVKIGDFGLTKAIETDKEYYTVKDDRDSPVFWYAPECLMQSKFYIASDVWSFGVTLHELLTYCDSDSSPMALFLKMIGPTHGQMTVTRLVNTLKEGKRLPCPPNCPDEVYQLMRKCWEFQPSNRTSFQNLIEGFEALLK
row,SMILES,JAK 1 (pKi)
1,C=CC(=O)N1CC(CCn2c(=O)ccc3cnc(Nc4ccc(C5=CCN(C)CC5)cc4)nc32)C1 [Example 74],E (E represents a pKi value of 7 or below (Ki of 100 nM or above))
2,C=CC(=O)N1CC(CCn2c(=O)ccc3cnc(Nc4ccc(N5CCN(S(=O)(=O)CCOC)CC5)cc4)nc32)C1 [Example 76],E (E represents a pKi value of 7 or below (Ki of 100 nM or above))
3,C=CC(=O)N1CCN(CCn2c(=O)ccc3cnc(Nc4ccc(N5CCN(C(C)=O)CC5)cc4)nc32)CC1 [Example 79],E (E represents a pKi value of 7 or below (Ki of 100 nM or above))
4,C=CC(=O)N1CC(CCn2c(=O)ccc3cnc(Nc4ccc(N(CC)CC)cc4)nc32)C1 [Example 88],E (E represents a pKi value of 7 or below (Ki of 100 nM or above))
5,C=CC(=O)N1CC(CCn2c(=O)ccc3cnc(Nc4ccc(CCN(C)C)cc4)nc32)C1 [Example 89],E (E represents a pKi value of 7 or below (Ki of 100 nM or above))
6,C=CC(=O)N1CC(CCn2c(=O)ccc3cnc(Nc4ccc(N5CCN(C(=O)N(C)C)CC5)cc4)nc32)C1 [Example 92],E (E represents a pKi value of 7 or below (Ki of 100 nM or above))

# Tested on: IL-2 stimulated STAT5 phosphorylation in Tall-1 human T cell line (JAK3)
# Assay: Cellular JAK3 potency assay: inhibition of IL-2 stimulated pSTAT5 in Tall-1 T cells
# Type: cell-based
# Conditions: IL-2 stimulated pSTAT5, Tall-1 T cells
# Summary of the method: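 AlphaLISA SureFire Ultra measures STAT5 Tyr694/699 phosphorylation in lysed Tall-1 human T cells. Cells were exposed to compound for 1 h at 37 °C before a 30 min IL-2 challenge (300 ng/ml final). Values are pIC50 means with standard deviation from signal-versus-concentration curves.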
row,SMILES,Tall-1 (pIC50)
1,C=CC(=O)N1CC(CCn2c(=O)ccc3cnc(Nc4ccc(C5=CCN(C)CC5)cc4)nc32)C1 [Example 74],B (B represents a pC50 value between 6.7 (included) and 7.5 (IC50 between 200 nM and 32 nM))
2,C=CC(=O)N1CC(CCn2c(=O)ccc3cnc(Nc4ccc(N5CCN(S(=O)(=O)CCOC)CC5)cc4)nc32)C1 [Example 76],B (B represents a pC50 value between 6.7 (included) and 7.5 (IC50 between 200 nM and 32 nM))
3,C=CC(=O)N1CCN(CCn2c(=O)ccc3cnc(Nc4ccc(N5CCN(C(C)=O)CC5)cc4)nc32)CC1 [Example 79],B (B represents a pC50 value between 6.7 (included) and 7.5 (IC50 between 200 nM and 32 nM))
4,C=CC(=O)N1CC(CCn2c(=O)ccc3cnc(Nc4ccc(N(CC)CC)cc4)nc32)C1 [Example 88],B (B represents a pC50 value between 6.7 (included) and 7.5 (IC50 between 200 nM and 32 nM))
5,C=CC(=O)N1CC(CCn2c(=O)ccc3cnc(Nc4ccc(CCN(C)C)cc4)nc32)C1 [Example 89],A (A represents a pIC50 value≥7.5 (IC50≤32 nM))
6,C=CC(=O)N1CC(CCn2c(=O)ccc3cnc(Nc4ccc(N5CCN(C(=O)N(C)C)CC5)cc4)nc32)C1 [Example 92],B (B represents a pC50 value between 6.7 (included) and 7.5 (IC50 between 200 nM and 32 nM))

# Tested on: not listed separately
# Assay: Colon and plasma mouse pharmacokinetics
# Type: in vivo
# Conditions: mouse, colon tissue / plasma; male Balb/c mice, 10 mg/kg PO; ratio of the colon AUC to the plasma AUC
# Procedure: Assay 5: Colon and Plasma Mouse Pharmacokinetics
# To 6 male Balb/c mice was administered 10 mg/kg of compound in 1% HPMC+0.1% Tween-80 by PO administration. At 0.5, 2 and 6 hours after dose administration, animals were anesthetized, and terminal blood samples were collected by cardiac puncture, followed by collection of colon contents and colon tissue.
# Blood samples were collected into K2EDTA and stored on wet ice until processed to plasma by centrifugation (12000 rpm at 4° C.). Plasma samples were transferred to cluster tubes and placed on dry ice prior to freezer storage. The colon contents from each animal were collected at each terminal blood collection time point. The colon tissues were flushed with saline and patted dry. The colon and colon content tissues were homogenized using sterile water containing 0.1% formic acid 9:1 (water:tissue, v/w). The homogenized tissues and colon contents were transferred to cluster tubes and placed on dry ice prior to freezer storage. All samples were analyzed using LC/MS/MS against analytical standards.
# The composite pharmacokinetic parameters of the compounds were determined by non-compartmental analysis using Phoenix WinNonlin Version 6 (Certara, St. Louis, Mo.) and using mean values from 2 animals/time point. For plasma concentrations below the quantification limit (BQL), the lowest concentration measurable or the BLOQ (below limit of quantification) was used.
# A colon to plasma ratio was determined as the ratio of the colon AUC to the plasma AUC.
row,SMILES,Kp
1,C=CC(=O)N1CC(CCn2c(=O)ccc3cnc(Nc4ccc(C5=CCN(C)CC5)cc4)nc32)C1 [Example 74],> 100
2,C=CC(=O)N1CC(CCn2c(=O)ccc3cnc(Nc4ccc(N5CCN(S(=O)(=O)CCOC)CC5)cc4)nc32)C1 [Example 76],> 14
3,C=CC(=O)N1CCN(CCn2c(=O)ccc3cnc(Nc4ccc(N5CCN(C(C)=O)CC5)cc4)nc32)CC1 [Example 79],> 1000
4,C=CC(=O)N1CC(CCn2c(=O)ccc3cnc(Nc4ccc(N(CC)CC)cc4)nc32)C1 [Example 88],> 14
5,C=CC(=O)N1CC(CCn2c(=O)ccc3cnc(Nc4ccc(CCN(C)C)cc4)nc32)C1 [Example 89],> 100
6,C=CC(=O)N1CC(CCn2c(=O)ccc3cnc(Nc4ccc(N5CCN(C(=O)N(C)C)CC5)cc4)nc32)C1 [Example 92],> 100

# Biological target: Tyk2 (Homo sapiens (Human), UniProt P29597)
# Assay: Biochemical Tyk2 kinase assay (LanthaScreen)
# Conditions: not given
# Summary of the method: as §1
# Sequence of Tyk2 (P29597 whole entry): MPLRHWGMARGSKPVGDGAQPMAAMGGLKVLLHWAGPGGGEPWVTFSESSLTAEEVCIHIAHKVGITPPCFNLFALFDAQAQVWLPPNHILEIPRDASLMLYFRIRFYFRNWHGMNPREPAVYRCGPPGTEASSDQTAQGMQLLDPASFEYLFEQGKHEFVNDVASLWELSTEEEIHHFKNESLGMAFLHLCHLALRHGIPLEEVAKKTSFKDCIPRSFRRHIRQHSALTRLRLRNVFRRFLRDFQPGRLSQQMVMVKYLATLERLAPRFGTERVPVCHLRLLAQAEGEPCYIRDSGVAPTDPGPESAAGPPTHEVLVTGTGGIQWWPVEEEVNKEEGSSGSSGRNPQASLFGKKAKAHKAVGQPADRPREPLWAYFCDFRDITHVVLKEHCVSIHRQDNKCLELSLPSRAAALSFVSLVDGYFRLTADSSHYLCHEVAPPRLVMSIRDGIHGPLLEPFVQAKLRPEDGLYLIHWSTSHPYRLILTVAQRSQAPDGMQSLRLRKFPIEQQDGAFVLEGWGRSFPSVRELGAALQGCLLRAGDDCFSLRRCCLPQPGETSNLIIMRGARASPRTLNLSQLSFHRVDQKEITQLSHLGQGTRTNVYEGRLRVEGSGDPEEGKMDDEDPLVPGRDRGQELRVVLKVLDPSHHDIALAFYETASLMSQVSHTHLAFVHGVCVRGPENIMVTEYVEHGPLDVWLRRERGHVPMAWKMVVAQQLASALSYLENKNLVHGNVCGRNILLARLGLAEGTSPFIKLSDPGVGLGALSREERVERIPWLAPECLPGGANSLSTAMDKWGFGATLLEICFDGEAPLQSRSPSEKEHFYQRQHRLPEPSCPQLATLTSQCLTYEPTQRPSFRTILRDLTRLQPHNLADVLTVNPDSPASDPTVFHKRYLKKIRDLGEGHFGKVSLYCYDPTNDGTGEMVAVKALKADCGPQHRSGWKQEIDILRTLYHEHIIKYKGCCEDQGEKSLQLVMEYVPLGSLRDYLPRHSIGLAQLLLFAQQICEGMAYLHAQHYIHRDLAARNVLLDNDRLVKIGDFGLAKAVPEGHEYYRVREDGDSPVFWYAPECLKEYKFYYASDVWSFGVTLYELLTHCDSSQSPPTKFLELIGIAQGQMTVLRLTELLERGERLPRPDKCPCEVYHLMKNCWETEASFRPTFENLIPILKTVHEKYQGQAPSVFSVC
row,SMILES,Tyk 2 (pKi)
1,C=CC(=O)N1CC(CCn2c(=O)ccc3cnc(Nc4ccc(C5=CCN(C)CC5)cc4)nc32)C1 [Example 74],E (E represents a pKi value of 7 or below (Ki of 100 nM or above))
2,C=CC(=O)N1CC(CCn2c(=O)ccc3cnc(Nc4ccc(N5CCN(S(=O)(=O)CCOC)CC5)cc4)nc32)C1 [Example 76],E (E represents a pKi value of 7 or below (Ki of 100 nM or above))
3,C=CC(=O)N1CCN(CCn2c(=O)ccc3cnc(Nc4ccc(N5CCN(C(C)=O)CC5)cc4)nc32)CC1 [Example 79],E (E represents a pKi value of 7 or below (Ki of 100 nM or above))
4,C=CC(=O)N1CC(CCn2c(=O)ccc3cnc(Nc4ccc(N(CC)CC)cc4)nc32)C1 [Example 88],E (E represents a pKi value of 7 or below (Ki of 100 nM or above))
5,C=CC(=O)N1CC(CCn2c(=O)ccc3cnc(Nc4ccc(CCN(C)C)cc4)nc32)C1 [Example 89],E (E represents a pKi value of 7 or below (Ki of 100 nM or above))
6,C=CC(=O)N1CC(CCn2c(=O)ccc3cnc(Nc4ccc(N5CCN(C(=O)N(C)C)CC5)cc4)nc32)C1 [Example 92],E (E represents a pKi value of 7 or below (Ki of 100 nM or above))
